Reference: patent US11071697B2, “Metal-carbon structure hybrid formulation for dental use in the treatment of dental hypersensitivity, demineralization and cavities” (UNIVERSIDAD DE CHILE, priority 2016, dated 2021)

Key:
[1] = Solubility of the salt as ammonia metal complex; assay type: physicochemical; details: impossible in aqueous solution
Description: In FIG. 6 it is observed the absorption spectrum UV/Visible which confirms this structure.
The shift toward smaller wavelengths gives an account of the formation of ammonia metal complex which is observed in an increase of the solubility of the salt in this solution which allows to reach fluoride concentrations close to 30,000 ppm, which is impossible in aqueous solution.

[2] = system: main bacterial species associated with dental caries; test: In vitro antibacterial capacity, inhibition halos; assay type: cell-based; details: composition: 25,000 ppm aqueous (Cu(NH3)6)F2 ammonia with 0.002 g/ml graphite oxide; FIG. 1
Description: FIG. 1. […] The dark zone corresponds to the area where there is no bacterial growth. […] A) Chlorhexidine, B) Silver Diamine Fluorine, C) Silane Fluorine, D) Composition of the Invention. […] These tests have been performed on the main bacterial species associated with dental caries.

(TPH1) human cells = test: Cell viability by mitochondrial activity assay (MTT); assay type: cell-based; details: FIG. 2
Description: FIG. 2. Cell viability assay using mitochondrial activity technique (MTT). THP1 cell type.

For `N.N.N.N.N.N.[Cu+2].[F-].[F-]` [Cu(NH3)6F2], the “fluoride concentrations reached in ammonia solution” value [1] was ~30,000 ppm.
For `[H]/N=C(\N/C(=N/[H])NCCCCCCNC(=N)NC(=N)Nc1ccc(Cl)cc1)Nc1ccc(Cl)cc1` [chlorhexidine], the “areas of inhibition halos” value [2] was 659 mm^2 and the “toxicity (in words)” value ((TPH1) human cells) was “a degree of toxicity”.
